Measurements as given in US7776572B2, “Method for reducing loss of enzyme activity during storage” (Corning Incorporated, priority 1996, dated 2010).

Tests used:
[1] = system: IgG (Horse Standard, Pierce); assay: Coating durability using protein solution washes on four polymers, colloidal Au; conditions: after six IgG solution exposures
Experimental: The procedures used were as follows. Injection molded assay plates (96-well format) were made from polystyrene, (STYRON Dow 685D), polypropylene (Exxon 9374), polymethyl methacrylate (ATO HAAS), and KYNAR FLEX 2800 PVDF copolymer (ATO HAAS). Each well was aliquoted 0.10 ml of IgG (Horse Standard, Pierce) at 10 μg/ml in 0.01 M PBS buffer (pH=7.4) and placed on a rocker table for 30 minutes at 23° C. The protein solution was then emptied from the wells and a fresh protein solution was aliquoted to each well and the entire procedure repeated a total of six times. The plates were then rinsed three times with dI H2O (0.3 ml/well). Colloidal Au stain was added to each well (0.3 ml/well) and the plates were placed on a rocker table overnight. Plates were then rinsed 3 times with dI H2O, allowed to dry, and absorbance at 550 nm was measured using the Cambridge Technologies Plate Reader.

[2] = system: BSA protein; assay: Coating stability in the presence of excess protein, colloidal gold
Experimental: The following procedures were employed in this example. 24-well polystyrene plates were coated as described in Materials and Methods using 25 μl aliquots of 0.10% (w/v) sorbitol mono-oleate in isopropanol. Coverage of the sorbitol mono-oleate was calculated at 10 μg/cm^2. Each well of the plates was exposed to 1.0 ml of BSA protein (Pierce) at 2 mg/ml in PBS buffer (pH=7.4). The plates were incubated on a rocker table for 30 minutes at room temperature, the wells were emptied, and the protein exposure was repeated a total of six times. The plates were then rinsed 3 times with dI H2O and stained with the colloidal gold stain overnight. Plates were then rinsed with dI H2O, dried, and the absorbance of each well was measured at 550 nm on the Cambridge Technologies plate reader.

[3] = system: IgG; assay: Protein binding to coated 0.45 micron PVDF membranes, Au stain; conditions: coated two times by immersion, 0.1% in isopropanol; IgG 10 μg/ml
Experimental: The experiments were performed using 0.45 micron PVDF membranes. The membranes were coated two times by immersion using 0.1% (weight/volume) of the following non-ionic surfactants in isopropanol: sorbitol mono-oleate, Pluronic® L-121, Pluronic® L-122, and Pluronic® L-123. The membrane was dried at room temperature after each of the two immersion coatings. The coated membranes were incubated with IgG 10 μg/ml in 0.1M PBS (pH 7.4) for 30 minutes at room temperature on an orbital shaker. The membranes were then rinsed three times with water in a clean plate, each rinse being performed for 5 minutes on the shaker. Thereafter, the membranes were stained with Au overnight, again on the shaker. An uncoated PVDF membrane was used as a control.

[4] = system: IgG protein; assay: In-mold coating of 24-well polystyrene plates, protein binding by colloidal gold staining
Experimental: The in-mold coating aspects of the invention were tested by molding 24-well polystyrene plates. […] The 0.01% concentration was estimated to produce less than one monolayer of surfactant on the finished product, while the 0.1% concentration produced about 7 monolayers. The surfactant was applied to the mold using a Crown sprayer (Crown Industrial Products, Hebron, Ill.; Catalog #8011), which produces a sufficiently fine spray of droplets to uniformly coat the mold. The mold was sprayed before each part was made.

Sequence: SORBITOL MONO-OLEATE
- Absorbance (550 nm) Polypropylene [1]: 0.00
- Absorbance (550 nm) Polystyrene [1]: 0.00
- Absorbance at 550 nm ([2]; 1 exposure to BSA 2 mg/ml, 30 min total, coated polystyrene): 0.0
- Absorbance at 550 nm ([2]; 2 exposures, 60 min total): 0.0
- Absorbance at 550 nm ([2]; 3 exposures, 90 min total): 0.0
- Absorbance at 550 nm ([2]; 4 exposures, 120 min total): 0.0
- Absorbance at 550 nm ([2]; 5 exposures, 150 min total): 0.0
- Absorbance at 550 nm ([2]; 6 exposures, 180 min total): 0.0
- protein binding to coated PVDF membrane [3]: substantially identical to that of the uncoated PVDF
- protein binding of in-mold coated part ([4]; concentrations above 0.1%, ranging up to 2%): found to work successfully
- protein binding of in-mold coated part ([4]; mold sprayed with 0.01% (w/v) solution in isopropanol): pooling and missed areas were seen which bound protein
- protein binding of in-mold coated part ([4]; mold sprayed with 0.1% (w/v) solution in isopropanol): essentially no protein binding
